In PubChem BioAssay AID248 (DTP/NCI, 2004):
“And” between values parts separate entries of the source, which are not always exact repeats. Equal entries are not always repeated. Toxic doses and inconclusive results are not listed. Cut-off read from the data, not from the text of the source: active = T/C of 150% or more; inactive = T/C below 125%.

Tested on: L1210 leukemia ip in BDF1 mice, survival T/C
Test: NCI In Vivo Anticancer Drug Screen. Data for tumor model L1210 Leukemia (intraperitoneal) in B6D2F1 (BDF1) mice
Conditions: endpoint: mean survival time, higher = longer survival
Procedure: The antitumor activity of compounds was measured in mice bearing transplantable tumors. Survival or tumor size were measured and the results are expressed as the measurement made in the treated group (T) divided by the measurement made in the vehicle treated control group (C). The tumor model used in this assay is L1210 Leukemia (intraperitoneal) in B6D2F1 (BDF1) mice

[1] = dose: 100.0 mg/kg/injection, schedule: Q04DX003 (ip), vehicle: saline with Tween-80
[2] = dose: 200.0 mg/kg/injection, schedule: Q04DX003 (ip), vehicle: saline with Tween-80
[3] = dose: 400.0 mg/kg/injection, schedule: Q04DX003 (ip), vehicle: saline with Tween-80
[4] = dose: 100.0 mg/kg/injection, schedule: Q01DX001 (ip), vehicle: carboxymethylcellulose (CMC)
[5] = dose: 200.0 mg/kg/injection, schedule: Q01DX001 (ip), vehicle: carboxymethylcellulose (CMC)
[6] = dose: 400.0 mg/kg/injection, schedule: Q01DX001 (ip), vehicle: carboxymethylcellulose (CMC)
[7] = dose: 100.0 mg/kg/injection, schedule: Q01DX001 (ip), vehicle: Klucel (hydroxypropylcellulose) (HPC)
[8] = dose: 200.0 mg/kg/injection, schedule: Q01DX001 (ip), vehicle: Klucel (hydroxypropylcellulose) (HPC)
[9] = dose: 100.0 mg/kg/injection, schedule: Q04DX003 (ip), vehicle: Klucel (hydroxypropylcellulose) (HPC)
[10] = dose: 200.0 mg/kg/injection, schedule: Q04DX003 (ip), vehicle: Klucel (hydroxypropylcellulose) (HPC)
[11] = dose: 400.0 mg/kg/injection, schedule: Q04DX003 (ip), vehicle: Klucel (hydroxypropylcellulose) (HPC)
[12] = dose: 100.0 mg/kg/injection, schedule: Q01DX009 (ip), vehicle: Klucel (hydroxypropylcellulose) (HPC)
[13] = dose: 200.0 mg/kg/injection, schedule: Q01DX009 (ip), vehicle: Klucel (hydroxypropylcellulose) (HPC)
[14] = dose: 400.0 mg/kg/injection, schedule: Q01DX009 (ip), vehicle: Klucel (hydroxypropylcellulose) (HPC)
[15] = dose: 100.0 mg/kg/injection, schedule: Q01DX001 (ip), vehicle: saline
[16] = dose: 200.0 mg/kg/injection, schedule: Q01DX001 (ip), vehicle: saline
[17] = dose: 400.0 mg/kg/injection, schedule: Q01DX001 (ip), vehicle: saline
[18] = dose: 400.0 mg/kg/injection, schedule: Q01DX001 (ip), vehicle: Klucel (hydroxypropylcellulose) (HPC)

Measured: T/C

ClC1=NC(c2ccc(Cl)cc2)N2C1C2c1ccccc1 (configuration not stated)
inactive: [1] 92 % of control | [2] 92 % of control | [3] 94 % of control

NCC(=O)O
inactive: [4] 100 % of control | [5] 92 % of control | [6] 100 % of control

O=C1OCCN1N1C(=O)CC2(CCCCC2)C1=O
inactive: dose: 50.0 mg/kg/injection, schedule: Q01DX001 (ip), vehicle: Klucel (hydroxypropylcellulose) (HPC) 100 % of control | [7] 107 % of control | [8] 97 % of control

O=C(OCCCl)c1ccc([N+](=O)[O-])cc1
inactive: [1] 95 % of control | [2] 95 % of control | [3] 102 % of control

CCNC(=S)NNC(=S)NNc1ccccc1
inactive: dose: 12.5 mg/kg/injection, schedule: Q04DX002 (ip), vehicle: other 102 % of control | dose: 25.0 mg/kg/injection, schedule: Q04DX002 (ip), vehicle: other 100 % of control | dose: 50.0 mg/kg/injection, schedule: Q04DX002 (ip), vehicle: other 102 % of control

O=C1N(c2ccccc2)C(=O)N1c1ccccc1
inactive: [9] 93 % of control | [10] 96 % of control

C/C=N\N=C(N)N
inactive: dose: 15.0 mg/kg/injection, schedule: Q01DX Z (ip), vehicle: saline 91 % of control | dose: 30.0 mg/kg/injection, schedule: Q01DX Z (ip), vehicle: saline 97 % of control | dose: 60.0 mg/kg/injection, schedule: Q01DX Z (ip), vehicle: saline 100 % of control | dose: 120.0 mg/kg/injection, schedule: Q01DX Z (ip), vehicle: saline 94 % of control | dose: 120.0 mg/kg/injection, schedule: Q01DX Z (oral), vehicle: other 95 % of control | dose: 240.0 mg/kg/injection, schedule: Q01DX Z (oral), vehicle: other 97 % of control | dose: 480.0 mg/kg/injection, schedule: Q01DX Z (oral), vehicle: other 102 % of control | dose: 960.0 mg/kg/injection, schedule: Q01DX Z (oral), vehicle: other 122 % of control

FC(F)(F)c1ccc2c(c1)N(CCCCl)c1ccccc1S2
inactive: dose: 50.0 mg/kg/injection, schedule: Q04DX003 (ip), vehicle: Klucel (hydroxypropylcellulose) (HPC) 103 % of control | [9] 118 % of control | [10] 105 % of control | [11] 115 % of control

Nc1ccc(Cl)cc1-c1nc2ccccc2[nH]1
inactive: [1] 91 % of control | [2] 95 % of control | [3] 91 % of control

CCCCCCCCCCCC[As](=O)(O)O
inactive: dose: 50.0 mg/kg/injection, schedule: Q01DX001 (ip), vehicle: carboxymethylcellulose (CMC) 96 % of control | [4] 93 % of control

O=C(C(=O)c1cc(Br)ccc1O)c1cc(Br)ccc1O
inactive: [12] 96 % of control | [9] 93 % of control | [13] 100 % of control | [10] 97 % of control | [14] 94 % of control | [11] 95 % of control

COC1C(CO)OC(n2cnc3c(=O)[nH]c(N)nc32)C1O (configuration not stated)
inactive: [4] 98 % of control | [5] 104 % of control | [6] 114 % of control

COc1ccc(N=C(N)NC#N)cc1
inactive: [12] 100 % of control | [9] 93 % of control | [13] 97 % of control | [10] 92 % of control | [11] 97 % of control

CN(C)c1ncnc2c1ncn2C1OC(CO)C2NP(=O)(N(CCCl)CCCl)OC21 (configuration not stated)
inactive: dose: 75.0 mg/kg/injection, schedule: Q01DX001 (ip), vehicle: saline 103 % of control | dose: 150.0 mg/kg/injection, schedule: Q01DX001 (ip), vehicle: saline 119 % of control

O=C(CCN1C(=O)c2ccccc2C1=O)c1ccc(O)cc1
inactive: dose: 6.25 mg/kg/injection, schedule: Q01DX009 (ip), vehicle: saline with Tween-80 97 % of control | dose: 12.5 mg/kg/injection, schedule: Q01DX009 (ip), vehicle: saline with Tween-80 98 % of control | dose: 25.0 mg/kg/injection, schedule: Q01DX009 (ip), vehicle: saline with Tween-80 91 % of control

CN(C)CCOCCN(C)C
inactive: [15] 102 % of control | [16] 105 % of control | [17] 102 % of control

CCCCCCN(S(=O)(=O)c1ccc([N+](=O)[O-])cc1)S(=O)(=O)c1ccc([N+](=O)[O-])cc1
inactive: [9] 96 % of control | [10] 88 % of control | [11] 88 % of control

OC1CCCC2CCCNC12 (configuration not stated) (tested in a mixture with another compound)
inactive: [12] 105 % of control | [9] 93 % of control | [13] 95 % of control | [10] 105 % of control | [14] 90 % of control | [11] 89 % of control

Cc1ccccc1/[N+]([O-])=C/c1ccccc1
inactive: [7] 104 % of control | [9] 103 % of control | [8] 104 % of control | [13] 93 % of control | [10] 102 % of control | [18] 101 % of control | [14] 104 % of control | [11] 102 % of control

CC1(C)COC(=S)N1
inactive: dose: 3.13 mg/kg/injection, schedule: Q01DX009 (ip), vehicle: Klucel (hydroxypropylcellulose) (HPC) 100 % of control | dose: 5.0 mg/kg/injection, schedule: Q01DX009 (ip), vehicle: saline 100 % of control | dose: 5.0 mg/kg/injection, schedule: Q04DX003 (ip), vehicle: saline 98 % of control | dose: 6.25 mg/kg/injection, schedule: Q01DX009 (ip), vehicle: Klucel (hydroxypropylcellulose) (HPC) 103 % of control | dose: 10.0 mg/kg/injection, schedule: Q01DX009 (ip), vehicle: Klucel (hydroxypropylcellulose) (HPC) 97 % of control | dose: 10.0 mg/kg/injection, schedule: Q01DX009 (ip), vehicle: saline 100 % of control | dose: 10.0 mg/kg/injection, schedule: Q04DX003 (ip), vehicle: saline 102 % of control | dose: 12.5 mg/kg/injection, schedule: Q01DX009 (ip), vehicle: Klucel (hydroxypropylcellulose) (HPC) 97 % of control and 87 % of control | dose: 20.0 mg/kg/injection, schedule: Q04DX003 (ip), vehicle: Klucel (hydroxypropylcellulose) (HPC) 100 % of control | dose: 20.0 mg/kg/injection, schedule: Q04DX003 (ip), vehicle: saline 101 % of control

CSc1ncnc2c1nnn2C1CC(CO)C(O)C1O (configuration not stated)
inactive: [7] 95 % of control | [8] 101 % of control | [18] 102 % of control

Cc1cnc(SCc2ccc(Cl)cc2)[nH]c1=S
inactive: dose: 25.0 mg/kg/injection, schedule: Q01DX Z (ip), vehicle: methylcellulose (MC) 87 % of control | dose: 50.0 mg/kg/injection, schedule: Q01DX Z (ip), vehicle: methylcellulose (MC) 89 % of control

Cc1cccc(NC(=O)Nc2ccccc2)c1C
inactive: [12] 104 % of control | [9] 101 % of control | [13] 96 % of control | [10] 95 % of control | [14] 104 % of control | [11] 98 % of control

Nc1nc2ncc(CNc3ccc(C(=O)NC(CCC(=O)O)C(=O)O)s3)nc2c(=O)[nH]1 (configuration not stated)
inactive: [15] 95 % of control | [16] 101 % of control and 95 % of control | [17] 93 % of control and 90 % of control
